Measured values taken from PubChem BioAssay AID256 (DTP/NCI, 2004).
Where “and” joins values, the source holds several entries; their conditions need not be identical. Equal entries are not always repeated. Toxic doses and inconclusive results are not listed. How the source made its calls: active means survival T/C of 150% or more; inactive means T/C below 125% in these data.

Test system: CD2F1 mice, L1210 leukemia ip, survival T/C
Test: NCI In Vivo Anticancer Drug Screen. Data for tumor model L1210 Leukemia (intraperitoneal) in CD2F1 (CDF1) mice
Settings: endpoint: mean survival time, higher = longer survival
Procedure, shortened: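 Activity against a transplanted murine tumor was judged by comparing the compound group with a vehicle group. The outcome in the treated animals was divided by that in the controls.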

[1] = dose: 100.0 mg/kg/injection, schedule: Q01DX009 (ip), vehicle: saline with Tween-80
[2] = dose: 200.0 mg/kg/injection, schedule: Q01DX009 (ip), vehicle: saline with Tween-80
[3] = dose: 400.0 mg/kg/injection, schedule: Q01DX009 (ip), vehicle: saline with Tween-80
[4] = dose: 100.0 mg/kg/injection, schedule: Q04DX003 (ip), vehicle: saline with Tween-80
[5] = dose: 200.0 mg/kg/injection, schedule: Q04DX003 (ip), vehicle: saline with Tween-80
[6] = dose: 400.0 mg/kg/injection, schedule: Q04DX003 (ip), vehicle: saline with Tween-80
[7] = dose: 100.0 mg/kg/injection, schedule: Q01DX001 (ip), vehicle: saline with Tween-80
[8] = dose: 200.0 mg/kg/injection, schedule: Q01DX001 (ip), vehicle: saline with Tween-80
[9] = dose: 400.0 mg/kg/injection, schedule: Q01DX001 (ip), vehicle: saline with Tween-80
[10] = dose: 100.0 mg/kg/injection, schedule: Q04DX003 (ip), vehicle: saline
[11] = dose: 200.0 mg/kg/injection, schedule: Q04DX003 (ip), vehicle: saline
[12] = dose: 400.0 mg/kg/injection, schedule: Q04DX003 (ip), vehicle: saline

Measured: T/C

COc1ccc(N=C/C=C/c2ccccc2)cc1
inactive: [1] 97 % of control | dose: 100.0 mg/kg/injection, schedule: Q04DX003 (ip), vehicle: saline sonified 96 % of control | [2] 89 % of control | dose: 200.0 mg/kg/injection, schedule: Q04DX003 (ip), vehicle: saline sonified 103 % of control | [3] 90 % of control | dose: 400.0 mg/kg/injection, schedule: Q04DX003 (ip), vehicle: saline sonified 97 % of control

NC(=O)/C(=N/O)c1ccccc1
inactive: [4] 104 % of control | [5] 106 % of control | [6] 102 % of control

CC(C)CCCC(C)C1CCC2C3CCC4CC5OCC(O)CC5CC4(C)C3CCC12C (stereo unspecified)
inactive: [1] 96 % of control | [2] 100 % of control | [3] 96 % of control

Cc1ccc(S(=O)(=O)N(C)c2ccc(C(=O)O)c(Cl)c2Cl)cc1
inactive: [7] 96 % of control | [1] 101 % of control | [8] 93 % of control | [2] 98 % of control | [9] 102 % of control | [3] 98 % of control

O=S(=O)(/N=C1\c2ccccc2/C(=N\S(=O)(=O)c2ccccc2)C2C3C=CC(C3)C12)c1ccccc1 (stereo unspecified)
inactive: dose: 25.0 mg/kg/injection, schedule: Q01DX001 (ip), vehicle: saline sonified 107 % of control | dose: 50.0 mg/kg/injection, schedule: Q01DX001 (ip), vehicle: saline sonified 102 % of control | dose: 100.0 mg/kg/injection, schedule: Q01DX001 (ip), vehicle: saline sonified 101 % of control

CC1CC([O-])=N/[N+]1=C\c1ccccc1 (stereo unspecified)
inactive: [10] 101 % of control | [11] 96 % of control | [12] 94 % of control

CC/C=C\C/C=C\C/C=C\CCCCCCCC(=O)O
inactive: [4] 92 % of control | [5] 100 % of control | [6] 92 % of control

CN(C)N=Nc1ccc([N+](=O)[O-])cc1C(N)=O
inactive: dose: 18.8 mg/kg/injection, schedule: Q01DX009 (ip), vehicle: Klucel (hydroxypropylcellulose) (HPC) 95 % of control and 101 % of control | dose: 37.5 mg/kg/injection, schedule: Q01DX009 (ip), vehicle: Klucel (hydroxypropylcellulose) (HPC) 96 % of control and 110 % of control | dose: 75.0 mg/kg/injection, schedule: Q01DX009 (ip), vehicle: Klucel (hydroxypropylcellulose) (HPC) 101 % of control and 110 % of control | dose: 300.0 mg/kg/injection, schedule: Q01DX009 (ip), vehicle: Klucel (hydroxypropylcellulose) (HPC) 89 % of control

CCCCCCCCCCCCCCBr
inactive: dose: 50.0 mg/kg/injection, schedule: Q01DX009 (ip), vehicle: saline with Tween-80 96 % of control | [1] 103 % of control | [2] 96 % of control

CN(C)CCP(=O)(O)O
inactive: [10] 101 % of control | [11] 98 % of control | [12] 98 % of control

COc1ccc(C(=C(CC(=O)O)C(=O)O)c2ccc(OC)cc2)cc1
inactive: dose: 100.0 mg/kg/injection, schedule: Q01DX001 (ip), vehicle: saline 98 % of control | dose: 200.0 mg/kg/injection, schedule: Q01DX001 (ip), vehicle: saline 98 % of control | dose: 400.0 mg/kg/injection, schedule: Q01DX001 (ip), vehicle: saline 101 % of control

Cc1nc(/N=C(\N)Nc2ccc(Cl)c(Cl)c2)[nH]c(=O)c1Cc1ccccc1
inactive: [4] 95 % of control | [5] 88 % of control | [6] 102 % of control

CCCCCCCCN(C)Cc1cc(C(C)(C)C)cc(-c2ccccc2)c1O
inactive: [1] 96 % of control | [2] 96 % of control | [3] 96 % of control

O=C1C(c2ccccc2)=C(c2ccccc2)c2ccc(Cl)cc21
inactive: [7] 106 % of control | [8] 98 % of control | [9] 97 % of control

O=C(CCCC(Br)c1ccccc1)c1ccccc1 (stereo unspecified)
inactive: [7] 90 % of control | [9] 95 % of control
